Measured values: patent US20140314857A1, “FORMULATIONS FOR ENHANCED BIOAVAILABILITY OF ZANAMIVIR” (priority 2012, published 2014)

System: Caco-2 cell monolayers
Assay: Initial screening of permeability enhancers with peramivir across Caco-2 cell monolayers
Details: with glycerol or Capmul MCM L8 as enhancer; results not shown

CCC(CC)[C@H](NC(C)=O)[C@@H]1[C@H](O)[C@@H](C(=O)O)C[C@H]1N=C(N)N [peramivir]
drug transport across Caco-2 cell monolayers: substantially increased drug transport
